“Also recorded” adds a separate entry of the source.

The subject of data set [1] is hyperphosphorylation of progranulin at Ser81 in lymphoblastoid cell lines (LCL). Description: Kinase inhibitors added to cultured lymphoblastoid cell lines (LCL), progranulin isoforms read by IEF and immunoblot. Conditions: for hyperphosphorylated progranulin isoform in IEF: LCL culture. Format: cell-based, human. The protocol:
Lymphoblastoid cell lines (LCLs) were established by infection of PBMCs with EBV as described before.
(§1) Isoelectric focusing was performed as described before. In short, whole blood cell extracts or extracts of LCLs were washed and treated with lysis buffer (8 M urea, 0.1 M NaH2PO4, 0.01 M Tris HCl, 0.1% NP40). Following to this, isoelectric focusing was performed (pH 3-10, Invitrogen) according to the manufacturer's protocol (1 hour 100 V, 1 hour 200 V, and 30 minutes 500 V). After semi-dry blotting on PVDF membranes (450 mA, 24V, 1 hour), patient's plasma was used for immunodetection of progranulin from whole blood cell lysates and murine anti-FLAG antibody (Sigma) was used at a dilution of 1:2,000 for immunodetection of progranulin from LCL lysates. These LCLs had been previously transfected with FLAG-tagged progranulin in pRTS. The membrane was blocked in TST/milk buffer (10% milk in 10 mM Tris/HCl, pH 7.5, 150 mM NaCl, 0.1% [v/v] Tween 20) overnight, washed, and incubated for 1 hour with plasma in TST or murine anti-FLAG-antibody. After 3 washings in TST, the membranes were incubated for 1 hour at room temperature with PDX-labeled goat anti-human IgG Ab (Dianova) diluted 1:5,000 or PDX-labeled anti-mouse IgG Ab (Biorad) in TST, subsequently washed in TST followed by ECL development. To perform IEF on different cell fractions, PBMCs and granulocytes were isolated by density double gradient centrifugation (Histopaque-1077 and -1119, Sigma). Monocytes, B-cells and T-cells were sorted with CD14, CD19 and CD3. Mucosa cells were obtained by swab from the oral cavities of patients and controls.
Stable transfected lymphoblastoid cell lines were cultured at 2×10e6 cells/ml in the presence of selected inhibitory compounds as indicated to narrow down the number of candidate kinases responsible for hyperphosphorylation at Ser81. […] After 3 days, cells were removed and analyzed by isoelectric focusing (IEF) and immunoblot detection. After the identification of PKC as the responsible kinase for the phosphorylation of serine 81, the same procedure was repeated with other selected inhibitory compounds to identify the subclass of PKC. The selected inhibitory compounds for the identification of the PKC subunit were: Staurosporin at […], 15 nM and 30 nM. Bisindolylmaleimide I (BIM I) at 1 nM, 5 nM, 10 nM and 20 nM, Rottlerin at 5 μM, 10 μM, 40 μM and 100 μM and the PKCβ-inhibitor at a concentration of 5 nm specifically for PKCβ-II and at a concentration of 21 nm for PKCβ-I and PKCβ-II.

For data set [2], the system named is phosphatase for progranulin's phosphorylated Ser81 in LCLs. Briefly: Phosphatase inhibitors added to cultured LCLs, progranulin isoforms read by IEF. In kind it is cell-based, human.
Text: FIG. 14 a) to b): Identification of PP1 as the responsible phosphatase. a) Phosphatase inhibitors at specific concentrations or DMSO only as control were administrated for three days to cultured LCLs derived from a healthy donor and from a patient with hyperphosphorylated progranulin. Subsequently LCL lysates were subjected to IEF. Lanes (1) and (4) show the IEF of the LCL from a healthy control and a progranulin-antibody positive patient cultured without phosphatase inhibitors. […] The further lanes show the administration of following phosphatase inhibitors to LCL-lysates from healthy controls (top) and from progranulin-antibody positive patients (bottom): 1) DMSO, 2) of serine/threonine inhibitor cocktail 1, 3) of NIPP1 at 10 pM, 4) of okadaic acid at 10 nM, 5) of okadaic acid at 0.1 nM and of okadaic acid at 500 nM.
as §1
To identify the responsible phosphatase for progranulin's phosphorylated Ser81 a panel of different phosphatase inhibitors was administered at specific concentrations to the cultured LCLs, which had been obtained from progranulin-antibody positive patients and from healthy controls with the aim to inhibit particular groups of phosphatases. This panel consisted of serine/threonine phosphatase inhibitor cocktail, tyrosine phosphatase inhibitor, okadaic acid at 500 nM, 10 nM, 0.1 nM and NIPP1 at 10 pM. Following to this, IEFs of the lysates of these LCLs were performed to check for possible differences in the phosphorylation state.

For data set [3] the following is noted: in vivo; cited from earlier work.
The subject of data set [4] is hyperphosphorylated progranulin isoform. Briefly: Treatment of sera / cell lysates with alkaline phosphatase before IEF. Format: biochemical, human. The following applies: samples of progranulin-antibody positive patients. The procedure: Treatment of whole blood cell lysates or LCL lysates with alkaline phosphatase was conducted in principal as previously described. FastAP thermo sensitive alkaline phosphatase (Fermentas) was used. In short LCLs were washed 3 times with PBS. The lysis was performed in a buffer of 10 mM Tris HCl pH 8 for 1 h at 4° C. Following to this the supplied FastAP-Buffer (10×Fast AP-Buffer: 100 mM Tris-HCl, pH 8.0, 50 mM MgCl2, 1 M KCl, 0.2% Triton X-100 and 1 mg/ml BSA) was added to the cell lysate. For 0.1 mg/ml lysed protein extract, 10 units of FastAP were utilized. After 1 h at 37° C., the alkaline phosphatase reaction was stopped by the addition of 50 mM EDTA. Equal volumes of sample and loading buffer were mixed, followed by IEF and immuno-detection.

Consider `CN(C)CCCn1cc(C2=C(c3c[nH]c4ccccc34)C(=O)NC2=O)c2ccccc21` [Bisindolylmaleimide I], for which the “hyperphosphorylated progranulin isoform in IEF” value was “didn't inhibit the hyperphosphorylation” in data set [1] (inhibitor at 1 nM); “didn't inhibit the hyperphosphorylation” in data set [1] (inhibitor at 5 nM); “didn't inhibit the hyperphosphorylation” in data set [1] (inhibitor at 10 nM); “the hyper-phosphorylated isoform disappeared” in data set [1] (inhibitor at 20 nM); “led to the disappearance of the hyperphosphorylated isoform” in data set [1] (inhibitor at 20 nM, listed as Bis-indolyl-maleimide I).
On to `O=c1oc2c(O)c(O)cc3c(=O)oc4c(O)c(O)cc1c4c23` [Ellagic Acid], for which the “electrical charge of the normal progranulin isoform in IEF” value is listed as “slight shift of the band of the normal progranulin isoform towards an electronically less negatively charged isoform” in data set [1] (10 pM, LCL of progranulin-antibody positive patients and of healthy controls); “change in the electrical charge of “normal” progranulin appeared as well” in data set [1] (50 μM, LCL of a healthy control); “change in the electrical charge” in data set [1] (50 μM, LCL of a progranulin-antibody positive patient). The “hyperphosphorylated progranulin isoform in IEF” value in data set [1] (inhibitor at 50 μM) was “disappearance of the hyperphosphorylated progranulin isoform”.
Take `O=C1NC(=O)C(c2cn(CCCn3ccnc3)c3ccccc23)=C1Nc1ccccc1` [PKCβ-inhibitor]: in data set [1] (inhibitor at 21 nM), the “hyperphosphorylated progranulin isoform in IEF” value is on record as “led to the disappearance of the hyperphosphorylated isoform”.
Consider `CC(=O)c1c(O)c(C)c(O)c(Cc2c(O)c3c(c(C(=O)/C=C/c4ccccc4)c2O)OC(C)(C)C=C3)c1O` [Rottlerin], for which the “hyperphosphorylated progranulin isoform in IEF” value in data set [1] (inhibitor at 5 μM) is given as “could not inhibit the phosphorylation of Ser81”; in data set [1] (inhibitor at 10 μM), “could not inhibit the phosphorylation of Ser81”; in data set [1] (inhibitor at 40 μM), “could not inhibit the phosphorylation of Ser81”; in data set [1] (inhibitor at 100 μM), “could not inhibit the phosphorylation of Ser81”; in data set [1] (inhibitor at different concentrations), “not possible to inhibit the responsible kinase”.
`CN[C@@H]1C[C@H]2O[C@@](C)([C@@H]1OC)n1c3ccccc3c3c4c(c5c6ccccc6n2c5c31)C(=O)NC4` [Staurosporin]: the “electrical charge of the normal progranulin isoform in IEF” value was “slight shift of the band of the normal progranulin isoform towards an electronically less negatively charged isoform” in data set [1] (2.5 pM, LCL of progranulin-antibody positive patients and of healthy controls); “slight shift of the band of the normal progranulin isoform towards an electronically less negatively charged isoform” in data set [1] (5 pM, LCL of progranulin-antibody positive patients and of healthy controls); “change in the electrical charge of “normal” progranulin appeared as well” in data set [1] (2.5 μM, LCL of a healthy control); “change in the electrical charge” in data set [1] (2.5 μM, LCL of a progranulin-antibody positive patient); “change in the electrical charge of “normal” progranulin appeared as well” in data set [1] (5 μM, LCL of a healthy control); “change in the electrical charge” in data set [1] (5 μM, LCL of a progranulin-antibody positive patient). For the same molecule, the “hyperphosphorylated progranulin isoform in IEF” value is on record as “led only to the disappearance of the hyperphosphorylated progranulin isoform” in data set [1] (inhibitor at 10 nM); “wasn't detectable” in data set [1] (inhibitor at 15 nM); “wasn't detectable; also recorded: led only to the disappearance of the hyperphosphorylated progranulin isoform” in data set [1] (inhibitor at 30 nM); “disappearance of the hyperphosphorylated progranulin isoform” in data set [1] (inhibitor at 2.5 μM); “disappearance of the hyperphosphorylated progranulin isoform” in data set [1] (inhibitor at 5 μM).
On to `C=C1[C@@H](O)[C@@H]2O[C@]3(CC[C@H](/C=C/[C@@H](C)[C@@H]4CC(C)=C[C@@]5(O[C@H](C[C@@](C)(O)C(=O)O)CC[C@H]5O)O4)O3)CC[C@H]2O[C@@H]1[C@@H](O)C[C@H](C)[C@H]1O[C@@]2(CCCCO2)CC[C@H]1C` [okadaic acid], for which the “normal and hyperphosphorylated progranulin isoforms in IEF” value in data set [2] (0.1 nM (specific for PP2A), listed as ocadaic acid) was “didn't change the phosphorylation state”; in data set [2] (10 nM (specific for PP1)), “led to the appearance of the hyperphosphorylated progranulin isoform and the disappearance of the normal progranulin isoform”; in data set [2] (10 nM (specific for PP1), listed as Ocadaic acid), “led to the appearance of the hyperphosphorylated progranulin isoform”; in data set [2] (500 nM (0.5 μM)), “led to the appearance of the hyperphosphorylated progranulin isoform and the disappearance of the normal progranulin isoform”; in data set [2] (500 nM (0.5 μM), listed as Ocadaic acid) it was “led to the appearance of the hyperphosphorylated progranulin isoform”.
For TNF-α, the half-life result in data set [3] was “about 20 min”.
For the molecule alkaline phosphatase, in data set [4], the “additional (aberrantly charged) progranulin isoform in IEF after pretreatment” value is “disappearance of the additional progranulin isoform; also recorded: had lost the aberrantly charged progranulin isoform”.

B1: NIPP1: phosphatase inhibitor, at 10 pM specific for PP1 (protein, UniProt Q12972 1-351, looked up)
Nuclear inhibitor of protein …: MAAAANSGSSLPLFDCPTWAGKPPPGLHLDVVKGDKLIEKLIIDEKKYYLFGRNPDLCDFTIDHQSCSRVHAALVYHKHLKRVFLIDLNSTHGTFLGHIRLEPHKPQQIPIDSTVSFGASTRAYTLREKPQTLPSAVKGDEKMGGEDDELKGLLGLPEEETELDNLTEFNTAHNKRISTLTIEEGNLDIQRPKRKRKNSRVTFSEDDEIINPEDVDPSVGRFRNMVQTAVVPVKKKRVEGPGSLGLEESGSRRMQNFAFSGGLYGGLPPTHSEAGSQPHGIHGTALIGGLPMPYPNLAPDVDLTPVVPSAVNMNPAPNPAVYNPEAVNEPKKKKYAKEAWPGKKPTPSLLI
For B1, the “normal and hyperphosphorylated progranulin isoforms in IEF” value in data set [2] (10 pM (specific for PP1)) is “led to the appearance of the hyperphosphorylated progranulin isoform and the disappearance of the normal progranulin isoform”.

The record behind these values is patent publication US20150316548A1, “PROGRANULIN AS MARKER FOR AUTOIMMUNE DISORDERS” (UNIVERSITAET DES SAARLANDES, priority 2012, published 2015).
